Earlier results on 1 substance are cited in patent US6086864A, “Pharmaceutical formulations comprising polythiourea and methods of use thereof” (Merrell Pharmaceuticals Inc., priority 1997, dated 2000).

The conditions of data set [1]: in vivo.
Data set [2] relates to viral protein responsible for cell recognition. The following applies: purified form of heparin.

With heparin, the side effects result in data set [1] is “hemorrhage and increased clot formation time as well as thrombocytopenia”. Moreover, the “inhibition of host cell infection” value in data set [2] is listed as “limited inhibition of host cell infection”.
